Consider four compounds from PMC6226112 (Clinical and Translational Science, 2018).

Molecules are shown by their SMILES. Read-outs that look alike come from different tables or passages of the source.

Data set [1] in a line: Trial 1 safety and tolerability. The settings on record: for Number of AEs considered related to the drug(s): 73 drug-related of 78 AEs.
For data set [2] the following is noted: both, human, in vivo.
The nature of data set [3]: clinical. The settings on record: both, human, in vivo.
The nature of data set [4]: clinical. The settings on record: human, in vivo.
For data set [5] the following is noted: GZR alone 200 mg once daily, ref historical database, cited from earlier work.
For data set [6] the following is noted: human, in vivo.
For data set [7] the following is noted: steady state; cited from earlier work.
The nature of data set [8]: Trial 2 safety and tolerability.

Turning to `COC(=O)N[C@H](C(=O)N1CCC[C@H]1c1nc(-c2ccc3c(c2)O[C@@H](c2ccccc2)n2c-3cc3cc(-c4c[nH]c([C@@H]5CCCN5C(=O)[C@@H](NC(=O)OC)C(C)C)n4)ccc32)c[nH]1)C(C)C` [EBR, elbasvir], in data set [1], the “Tolerability of coadministration with BUP/NAL” value was “generally well tolerated” and the “Number of AEs considered related to the drug(s)” value was 4. Besides, the “GMRs for AUC0-∞, Cmax, and C24 (range over the three parameters)” value in data set [2] is recorded as 1.13–1.22. Moreover, in the data set “clinical [3]”, the AUC(0-inf) (as a rule, total exposure, with the tail of the curve extrapolated) was found to be 2.55 µM·h and the Tmax (as a rule, the time from dosing to the highest level) turned out to be 3.01 h. In the data set “clinical [3]” (po, 50 mg), this compound displayed an AUC(0-inf) of 2.08 µM·h.

In the case of `C=C[C@@H]1C[C@]1(NC(=O)[C@@H]1C[C@@H]2CN1C(=O)[C@H](C(C)(C)C)NC(=O)O[C@@H]1C[C@H]1CCCCCc1nc3ccc(OC)cc3nc1O2)C(=O)NS(=O)(=O)C1CC1` [GZR, grazoprevir], in “clinical [4]”, the exposure AUC(0-t) – broadly, the area under the concentration-time curve up to a stated or last time point – was 2.13 µM·h; the highest level (Cmax) was 473 nM; the Tmax is 4 h. Moreover, in data set [5], the “C24, GM” value is listed as 13.9 nM. Also, the Cmax (in general, the maximum level reached in the sampled fluid or tissue) in data set [5] (read-out: Cmax, GM) was 583 nM. Further, in data set [6], the “C24, GM” value is recorded as 13.5 nM; the “GMRs for AUC0-24, Cmax, and C24 (range over the three parameters)” value is given as 0.80–0.97. In addition, the “Exposure in HCV-infected people compared with healthy people” value in data set [7] is about 2 fold. For the same compound, in data set [8], the “Tolerability of coadministration with BUP/NAL” value was “generally well tolerated”.

Regarding `C=CCN1CC[C@]23c4c5ccc(O)c4O[C@H]2C(=O)CC[C@@]3(O)[C@H]1C5` [NAL, naloxone], in the data set “clinical [4]”, the Tmax stood at 1.24 h. For the same compound, in data set [6], the “Apparent terminal T½, GM” value stood at 5.20 h and the “Cmax/D, GM” value was 0.149 ng/mL/mg. Moreover, in “clinical [3]”, the AUC(0-inf) was determined as 0.416 ng·h/mL, the peak level (Cmax) was 0.139 ng/mL and the Tmax was determined as 0.98 h. Besides, in the data set “clinical [3]” (2 mg), the AUC(0-inf) worked out at 0.47 ng·h/mL and the peak level (Cmax) was 0.165 ng/mL.

With `O=C1CC[C@@]2(O)[C@H]3Cc4ccc(O)c5c4[C@@]2(CCN3CC2CC2)[C@H]1O5` [NTX, naltrexone], the “Number of AEs considered related to the drug(s)” value in data set [1] is recorded as “three”.
